# Where “and” joins values, the source holds several entries; their conditions need not be identical. Equal values may be shown once. Read-outs that look alike come from different tables or passages of the source.
# Experiments:
# [1] = test system: House fly (Musca domestica); assay: Laboratory filter-paper bioassay, house flies exposed to nootkatone; type: in vivo; set-up: key to Dead, Means: % mortality of insects (treated mortality up to 100%); KD, Means / Affected, Means: unit not given here; settings: 1% v/v nootkatone on filter paper
# Description: (§1) This example describes a laboratory bioassay in which groups of house flies and red flour beetles were exposed to a nootkatone-containing composition to determine their susceptibilities to low concentrations of nootkatone.
# (§2) One milliliter of a 1% v/v nootkatone in ethanol was applied directly to 9 cm filter paper discs using a micropipette. The filter papers were allowed to dry completely and cut to the appropriate size prior to the start of the test. A negative control group (consisting of untreated replicates—ethanol only) was also assessed for comparative purposes.
# (§3) Treated and untreated filter papers were cut so that they covered the bottom of a suitable container for each test species as follows:
# Flies—Five replicates of 10 insects were tested. Inverted 10 ounce (295 mL) clear plastic cups with a 0.5 inch (1.27 cm) hole burned into the center of the bottom, and with the sides coated with Fluon (or similar) were used as the treatment containers. The bottoms of the containers consisted of Petri dish lids 3.54 inches ([…]) in diameter lined with a treated filter paper circle the same diameter. The cup was placed over the filter paper in the lid and both were secured in place using 2 rubber bands. The insects were introduced through the hole in the cup, and a plastic disc was placed over the opening to prevent escapes.
# (§4) Readings were discontinued if treated mortality reached 100%, or control mortality exceeded 20%.
# [2] = test system: Red flour beetle (Tribolium castaneum); assay: Laboratory filter-paper bioassay, red flour beetles exposed to nootkatone; type: in vivo; set-up: unit not given here; settings: 1% v/v nootkatone on filter paper
# Description: as §1, §2, §3
# Flour beetles—Five replicates of 10 insects were tested. A Petri dish lid 3.54 inches (9 cm) in diameter was inverted and served as the substrate for a 2.75 inch (7 cm) treated filter paper circle. The small Petri dish bottom was inverted over the paper and had its sides treated with Fluon (or similar) to prevent climbing and force exposure with the filter paper. The entire Petri dish was enclosed with two rubber bands.
# as §4
# [3] = test system: honey bee (Apis mellifera); settings: for 48-hour Mortality (%), replicates A-C: individual replicates
# Protocol: A negative control group and a solvent control group were maintained concurrently. Three replicate test chambers were maintained in each control and treatment group, with 10 bees in each test chamber. […] The positive control test was conducted concurrently with the definitive test. […] OECD Guidelines for Testing of Chemicals. […] The cumulative mortality observed in the test groups was used to determine the LD50, LOEC, and NOEC.
# The primary stock served as a dosing solution for the highest concentration (100 μg a.i./bee). […] Prior to dosing, young adult bees were removed from the frames, distributed into holding containers, and returned to the holding incubator. Approximately 50 bees were impartially placed in each of eight containers in preparation for use in the various treatment and control groups as needed during the dosing procedure.
# The test chambers were stainless steel cylinders measuring approximately 9 cm in diameter and 9 cm high, with perforations for ventilation. Each end of the test chamber was covered with a disposable plastic petri dish (approximately 10 cm in diameter), and the bottom petri dish was lined with filter paper. An inverted glass vial containing approximately 10 mL of 50% (w/v) sucrose solution was inserted through the lid of the chamber. The opening of the vial was covered with gauze, which prevented leakage allowing the bees to feed ad libitum throughout the test period. The test chambers were identified by study number, dosage group, and replicate.
# Prior to dosing, the bees in each holding container were immobilized with nitrogen. While anesthetized, bees were individually dosed with the appropriate dosing solution. Bees in the test substance, positive control, and solvent control groups were dosed by administering a 4 μL droplet of the appropriate dosing solution to the dorsal side of the thorax of each bee with an adjustable micropipette. Ten bees were impartially placed in each test chamber. Bees in the positive control treatment group were handled and dosed in the same manner. Solvent control bees were dosed with acetone. Negative control bees were not dosed but were handled identically to the treated bees. After dosing, test chambers were distributed into a testing incubator by indiscriminate draw.
# The bees were maintained in continuous darkness during the test except during periods of dosing and observations.
# The bees were observed and counted periodically to evaluate mortality and signs of toxicity or abnormal behavior.
# The negative control group was used for comparison with the treatment groups.
# [4] = test system: Aphid (Schizaphis gramium); assay: Laboratory filter-paper bioassay of aphid susceptibility to nootkatone; type: in vivo; settings: 1% v/v nootkatone in ethanol on filter paper, 24 hours post introduction
# Description: This example describes a laboratory bioassay in which groups of aphids were exposed to a nootkatone-containing composition to determine aphid susceptibility to nootkatone.
# One milliliter of a 1% v/v nootkatone in ethanol was applied directly to 9 cm filter paper discs using a micropipette. The filter papers were allowed to dry completely and cut to the appropriate size prior to the start of the test. Pure ethanol was used as a control.
# Treated and untreated filter papers were cut into 2.5 inch (6.35 cm) squares and folded into envelopes to serve as containers for the test. Five replicates of 10 aphids were tested per treatment. After the aphids were placed inside, the openings were sealed using clips so that the aphids could not escape.
# Aphids were observed after 24 hours post-introduction to the test containers.
# as §4
smiles,measurement,setting,value
"C=C(C)[C@@H]1CCC2=CC(=O)C[C@@H](C)[C@]2(C)C1 [Nootkatone, nootkatone]","Affected, Means",[1]; 30 minutes post introduction,0.0
same,"Dead, Means",[1]; 30 minutes post introduction,0.0
same,"KD, Means",[1]; 30 minutes post introduction,0.0
same,"Affected, Means",[1]; 1 hour post introduction,0.0
same,"Dead, Means",[1]; 1 hour post introduction,0.0
same,"KD, Means",[1]; 1 hour post introduction,0.0
same,"Affected, Means",[1]; 4 hours post introduction,0.0
same,"Dead, Means",[1]; 4 hours post introduction,0.0
same,"KD, Means",[1]; 4 hours post introduction,0.0
same,"Affected, Means",[1]; 24 hours post introduction,14.0
same,"Dead, Means",[1]; 24 hours post introduction,2.0
same,"KD, Means",[1]; 24 hours post introduction,12.0
same,"Affected, Means",[1]; 48 hours post introduction,28.0
same,"Dead, Means",[1]; 48 hours post introduction,28.0
same,"KD, Means",[1]; 48 hours post introduction,0.0
same,"Affected, Means",[1]; 72 hours post introduction,44.0
same,"Dead, Means",[1]; 72 hours post introduction,42.0
same,"KD, Means",[1]; 72 hours post introduction,2.0
same,"Affected, Means",[2]; 30 minutes post introduction,0.0
same,"Dead, Means",[2]; 30 minutes post introduction,0.0
same,"KD, Means",[2]; 30 minutes post introduction,0.0
same,"Affected, Means",[2]; 1 hour post introduction,0.0
same,"Dead, Means",[2]; 1 hour post introduction,0.0
same,"KD, Means",[2]; 1 hour post introduction,0.0
same,"Affected, Means",[2]; 4 hours post introduction,0.0
same,"Dead, Means",[2]; 4 hours post introduction,0.0
same,"KD, Means",[2]; 4 hours post introduction,0.0
same,"Affected, Means",[2]; 24 hours post introduction,4.2
same,"Dead, Means",[2]; 24 hours post introduction,0.0
same,"KD, Means",[2]; 24 hours post introduction,4.2
same,"Affected, Means",[2]; 48 hours post introduction,6.4
same,"Dead, Means",[2]; 48 hours post introduction,6.4
same,"KD, Means",[2]; 48 hours post introduction,0.0
same,"Affected, Means",[2]; 72 hours post introduction,10.9
same,"Dead, Means",[2]; 72 hours post introduction,10.9
same,"KD, Means",[2]; 72 hours post introduction,0.0
same,48-hour Mortality Mean (%),[3]; 6.25 μg a.i./bee topical,10%
same,"48-hour Mortality (%), replicates A-C",[3]; 6.25 μg a.i./bee topical,0% and 10% and 20%
same,48-hour Mortality Mean (%),[3]; 12.5 μg a.i./bee topical,10%
same,"48-hour Mortality (%), replicates A-C",[3]; 12.5 μg a.i./bee topical,0% and 10% and 20%
same,48-hour Mortality Mean (%),[3]; 25 μg a.i./bee topical,0%
same,"48-hour Mortality (%), replicates A-C",[3]; 25 μg a.i./bee topical,0%
same,48-hour Mortality Mean (%),[3]; 50 μg a.i./bee topical,3.3%
same,"48-hour Mortality (%), replicates A-C",[3]; 50 μg a.i./bee topical,0% (2×) and 10%
same,48-hour Mortality Mean (%),[3]; 100 μg a.i./bee topical,13.3%
same,"48-hour Mortality (%), replicates A-C",[3]; 100 μg a.i./bee topical,10% (2×) and 20%
same,NOEC (No Observable Effect Concentration),"[3]; 48-hour mortality, highest concentration tested",100 μg a.i./bee
same,Mortality in the treatment groups at the end of the test,"[3]; all doses 6.25 to 100 μg a.i./bee, 48 hours, listed as Nootkatone 98%",less than 50%
same,"Affected, Means",[4],100.0%
same,"Dead, Means",[4],94.0%
same,"KD (knockdown), Means",[4],6.0%
same,"Dead, Means",[4]; listed as nootkatone,94%
same,"KD (knockdown), Means",[4]; listed as nootkatone,6%

# — US11737459B2, “Use of nootkatone to kill sap-sucking insects” (EVOLVA SA, priority 2016, dated 2023)
